Results as given in PubChem BioAssay AID2060622 (Molecular Pharmacology Branch, DTP, NCI, 2025).
pIC50: −log10 of the molar value. Values joined by “and” are separate entries in the source; they are usually repeats but may differ in a detail not shown here. Equal values may be shown once. Each block holds one compound with its values, some of them ahead of it.

Tested on: 242566-281-R-J2-PDC complex spheroid viability
Test: Anticancer human tumor 242566-281-R-J2-PDC patient-derived pancreatic carcinoma cell line growth inhibition [CLK]
Details: for viability, T/C: stronger effect = lower value
In short: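 Patient-derived tumor cells grown as complex spheroids with HUVEC endothelial cells and mesenchymal stem cells, treated with drug combinations. Concentrations descend in half-log steps from near clinical Cmax, or from 10 microM if Cmax unknown.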

[1] = curve of first compound, second compound 0.0316 µM
[2] = curve of first compound, second compound 0.1 µM
[3] = curve of first compound, second compound 0.316 µM
[4] = curve of first compound, second compound 1 µM
[5] = curve of first compound, second compound 3.16 µM
[6] = curve of first compound, second compound 10 µM
[7] = second compound 0.0316 µM, first compound 0.00316 µM
[8] = second compound 0.0316 µM, first compound 0.01 µM
[9] = second compound 0.0316 µM, first compound 0.0316 µM
[10] = second compound 0.0316 µM, first compound 0.1 µM
[11] = second compound 0.1 µM, first compound 0.00316 µM
[12] = second compound 0.1 µM, first compound 0.01 µM
[13] = second compound 0.1 µM, first compound 0.0316 µM
[14] = second compound 0.1 µM, first compound 0.1 µM
[15] = second compound 0.316 µM, first compound 0.00316 µM
[16] = second compound 0.316 µM, first compound 0.01 µM
[17] = second compound 0.316 µM, first compound 0.0316 µM
[18] = second compound 0.316 µM, first compound 0.1 µM
[19] = second compound 1 µM, first compound 0.00316 µM
[20] = second compound 1 µM, first compound 0.01 µM
[21] = second compound 1 µM, first compound 0.0316 µM
[22] = second compound 1 µM, first compound 0.1 µM
[23] = second compound 3.16 µM, first compound 0.00316 µM
[24] = second compound 3.16 µM, first compound 0.01 µM
[25] = second compound 3.16 µM, first compound 0.0316 µM
[26] = second compound 3.16 µM, first compound 0.1 µM
[27] = second compound 10 µM, first compound 0.00316 µM
[28] = second compound 10 µM, first compound 0.01 µM
[29] = second compound 10 µM, first compound 0.0316 µM
[30] = second compound 10 µM, first compound 0.1 µM
[31] = second compound 0.0316 µM, first compound 0.316 µM
[32] = second compound 0.0316 µM, first compound 1 µM
[33] = second compound 0.1 µM, first compound 0.316 µM
[34] = second compound 0.1 µM, first compound 1 µM
[35] = second compound 0.316 µM, first compound 0.316 µM
[36] = second compound 0.316 µM, first compound 1 µM
[37] = second compound 1 µM, first compound 0.316 µM
[38] = second compound 1 µM, first compound 1 µM
[39] = second compound 3.16 µM, first compound 0.316 µM
[40] = second compound 3.16 µM, first compound 1 µM
[41] = second compound 10 µM, first compound 0.316 µM
[42] = second compound 10 µM, first compound 1 µM
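Note: spheroids exposed to compounds for 7 days before readout.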
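Throughout, for viability, T/C: 100% = DMSO vehicle control wells.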

SMILES: Cn1ncnc1[C@H]1c2n[nH]c(=O)c3cc(F)cc(c23)N[C@@H]1c1ccc(F)cc1 + CN1CCN(c2cc(C(=O)Nc3cc4cc(-c5cnn(C)c5)ccc4cn3)ccn2)CC1
- pIC50 [1]: < 7.00
- pIC50 [2]: < 7.00
- pIC50 [3]: > 9.50
- pIC50 [4]: > 9.50
- pIC50 [5]: > 9.50
- pIC50 [6]: > 9.50
- viability, T/C (second compound 0.0316 µM, first compound 0.000316 µM): 106%
- viability, T/C (second compound 0.0316 µM, first compound 0.001 µM): 96.4%
- viability, T/C [7]: 99.5%
- viability, T/C [8]: 107%
- viability, T/C [9]: 97.9%
- viability, T/C [10]: 88%
- viability, T/C (second compound 0.1 µM, first compound 0.000316 µM): 87.7%
- viability, T/C (second compound 0.1 µM, first compound 0.001 µM): 87.9%
- viability, T/C [11]: 89.1%
- viability, T/C [12]: 86.6%
- viability, T/C [13]: 84.8%
- viability, T/C [14]: 62.9%
- viability, T/C (second compound 0.316 µM, first compound 0.000316 µM): 34%
- viability, T/C (second compound 0.316 µM, first compound 0.001 µM): 35%
- viability, T/C [15]: 32.3%
- viability, T/C [16]: 30.9%
- viability, T/C [17]: 31.3%
- viability, T/C [18]: 26.8%
- viability, T/C (second compound 1 µM, first compound 0.000316 µM): 4.47%
- viability, T/C (second compound 1 µM, first compound 0.001 µM): 4.64%
- viability, T/C [19]: 4.59%
- viability, T/C [20]: 4.07%
- viability, T/C [21]: 3.7%
- viability, T/C [22]: 3.76%
- viability, T/C (second compound 3.16 µM, first compound 0.000316 µM): 6.68%
- viability, T/C (second compound 3.16 µM, first compound 0.001 µM): 7.67%
- viability, T/C [23]: 6.68%
- viability, T/C [24]: 5.7%
- viability, T/C [25]: 5.67%
- viability, T/C [26]: 5.8%
- viability, T/C (second compound 10 µM, first compound 0.000316 µM): 0.94%
- viability, T/C (second compound 10 µM, first compound 0.001 µM): 1.5%
- viability, T/C [27]: 1.24%
- viability, T/C [28]: 1.06%
- viability, T/C [29]: 2.08%
- viability, T/C [30]: 1.4%

SMILES: CCCS(=O)(=O)Nc1ccc(F)c(C(=O)c2c[nH]c3ncc(-c4ccc(Cl)cc4)cc23)c1F + CN1CCN(c2cc(C(=O)Nc3cc4cc(-c5cnn(C)c5)ccc4cn3)ccn2)CC1
- pIC50 [1]: 5.24
- pIC50 [2]: 5.25
- pIC50 [3]: > 7.50
- pIC50 [4]: > 7.50
- pIC50 [5]: > 7.50
- pIC50 [6]: > 7.50
- viability, T/C [9]: 98.8%
- viability, T/C [10]: 93.1%
- viability, T/C [31]: 96.3%
- viability, T/C [32]: 126%
- viability, T/C (second compound 0.0316 µM, first compound 3.16 µM): 97.3%
- viability, T/C (second compound 0.0316 µM, first compound 10 µM): 7.56%
- viability, T/C [13]: 84.8%
- viability, T/C [14]: 102%
- viability, T/C [33]: 87.5%
- viability, T/C [34]: 109%
- viability, T/C (second compound 0.1 µM, first compound 3.16 µM): 89.6%
- viability, T/C (second compound 0.1 µM, first compound 10 µM): 8.92%
- viability, T/C [17]: 42.3%
- viability, T/C [18]: 44.7%
- viability, T/C [35]: 45.2%
- viability, T/C [36]: 40.5%
- viability, T/C (second compound 0.316 µM, first compound 3.16 µM): 33.1%
- viability, T/C (second compound 0.316 µM, first compound 10 µM): 8.52%
- viability, T/C [21]: 4.91%
- viability, T/C [22]: 5.46%
- viability, T/C [37]: 4.96%
- viability, T/C [38]: 5.32%
- viability, T/C (second compound 1 µM, first compound 3.16 µM): 5.68%
- viability, T/C (second compound 1 µM, first compound 10 µM): 5.62%
- viability, T/C [25]: 7.02%
- viability, T/C [26]: 8.45%
- viability, T/C [39]: 6.23%
- viability, T/C [40]: 8.2%
- viability, T/C (second compound 3.16 µM, first compound 3.16 µM): 10.1%
- viability, T/C (second compound 3.16 µM, first compound 10 µM): 9.62%
- viability, T/C [29]: 2.81%
- viability, T/C [30]: 2.91%
- viability, T/C [41]: 2.02%
- viability, T/C [42]: 2.43%
- viability, T/C (second compound 10 µM, first compound 3.16 µM): 2.11%
- viability, T/C (second compound 10 µM, first compound 10 µM): 1.29%

SMILES: CCc1c2c(nc3ccc(O)cc13)-c1cc3c(c(=O)n1C2)COC(=O)[C@]3(O)CC + CN1CCN(c2cc(C(=O)Nc3cc4cc(-c5cnn(C)c5)ccc4cn3)ccn2)CC1
- pIC50 [1]: 8.05
- pIC50 [2]: 8.39
- pIC50 [3]: > 8.50
- pIC50 [4]: > 8.50
- pIC50 [5]: > 8.50
- pIC50 [6]: > 8.50
- viability, T/C [7]: 75.4%
- viability, T/C [8]: 47.6%
- viability, T/C [9]: 17.3%
- viability, T/C [10]: 8.08%
- viability, T/C [31]: 4.41%
- viability, T/C [32]: 2.2%
- viability, T/C [11]: 57%
- viability, T/C [12]: 26.9%
- viability, T/C [13]: 9.57%
- viability, T/C [14]: 5.51%
- viability, T/C [33]: 3.73%
- viability, T/C [34]: 1.87%
- viability, T/C [15]: 13.3%
- viability, T/C [16]: 7.58%
- viability, T/C [17]: 4.52%
- viability, T/C [18]: 2.86%
- viability, T/C [35]: 1.79%
- viability, T/C [36]: 1.15%
- viability, T/C [19]: 3.62%
- viability, T/C [20]: 3.2%
- viability, T/C [21]: 2.53%
- viability, T/C [22]: 2.3%
- viability, T/C [37]: 1.39%
- viability, T/C [38]: 1.39%
- viability, T/C [23]: 5.73%
- viability, T/C [24]: 5.04%
- viability, T/C [25]: 3.5%
- viability, T/C [26]: 3.24%
- viability, T/C [39]: 2.82%
- viability, T/C [40]: 1.82%
- viability, T/C [27]: 1.17%
- viability, T/C [28]: 0.88%
- viability, T/C [29]: 0.45%
- viability, T/C [30]: 0.5%
- viability, T/C [41]: 0.49%
- viability, T/C [42]: 0.31%

More lines, main results first:

- pIC50 (curve of compound): < 6.00
SMILES: CCN1CCN(Cc2ccc(Nc3ncc(F)c(-c4cc(F)c5nc(C)n(C(C)C)c5c4)n3)nc2)CC1
- viability, T/C (compound 0.00316 µM): 102% and 83%
- viability, T/C (compound 0.01 µM): 102% and 94.6%
- viability, T/C (compound 0.0316 µM): 90.6% and 95.6%
- viability, T/C (compound 0.1 µM): 103% and 89%
- viability, T/C (compound 0.316 µM): 118% and 100%
- viability, T/C (compound 1 µM): 132% and 152%

- pIC50 [1]: 7.71
- pIC50 [2]: 7.90
- pIC50 [3]: 8.30
- pIC50 [4]: > 8.50
- pIC50 [5]: > 8.50
- pIC50 [6]: > 8.50
SMILES: CCc1c2c(nc3ccc(O)cc13)-c1cc3c(c(=O)n1C2)COC(=O)[C@]3(O)CC + CNC(=O)c1ccc(Nc2nc(OC3CCCC3)c3c(-c4ccc5nc(C)oc5c4)c[nH]c3n2)c(OC)c1
- viability, T/C [7]: 93.6%
- viability, T/C [8]: 70.8%
- viability, T/C [9]: 35.2%
- viability, T/C [10]: 12.7%
- viability, T/C [31]: 5.19%
- viability, T/C [32]: 1.82%
- viability, T/C [11]: 76%
- viability, T/C [12]: 58.4%
- viability, T/C [13]: 17.6%
- viability, T/C [14]: 8.93%
- viability, T/C [33]: 5.07%
- viability, T/C [34]: 2.28%
- viability, T/C [15]: 69.5%
- viability, T/C [16]: 21.2%
- viability, T/C [17]: 8.24%
- viability, T/C [18]: 5.13%
- viability, T/C [35]: 3.51%
- viability, T/C [36]: 3.02%
- viability, T/C [19]: 29.4%
- viability, T/C [20]: 9.85%
- viability, T/C [21]: 4.94%
- viability, T/C [22]: 3.94%
- viability, T/C [37]: 3.17%
- viability, T/C [38]: 2.15%
- viability, T/C [23]: 23%
- viability, T/C [24]: 7.75%
- viability, T/C [25]: 4.05%
- viability, T/C [26]: 3.95%
- viability, T/C [39]: 3.63%
- viability, T/C [40]: 1.54%
- viability, T/C [27]: 18.5%
- viability, T/C [28]: 7.14%
- viability, T/C [29]: 4.31%
- viability, T/C [30]: 3.19%
- viability, T/C [41]: 3.1%
- viability, T/C [42]: 2.01%

- pIC50 (curve of compound): < 7.00
SMILES: Cn1ncnc1[C@H]1c2n[nH]c(=O)c3cc(F)cc(c23)N[C@@H]1c1ccc(F)cc1
- viability, T/C (compound 0.000316 µM): 106% and 93.2%
- viability, T/C (compound 0.001 µM): 93.8% and 102%
- viability, T/C (compound 0.00316 µM): 111% and 107%
- viability, T/C (compound 0.01 µM): 107% and 91%
- viability, T/C (compound 0.0316 µM): 96.3% and 95.3%
- viability, T/C (compound 0.1 µM): 87.1% and 99.8%
